Laboratory results reported in patent publication US5817766A, “Reagents for a cannabinoid immunoassay” (Roche Diagnostic Systems, Inc., priority 1995, dated 1998).

Key:
MoAb 11A6 = test: MIRA assay ABUSCREEN 100 TEST ONLINE KIT for cannabinoids, MoAb 11A6 with anti-IgG; assay type: binding, Murine; settings: commercial MIRA assay; (II) = 100 by definition; IgG from triple sequential immunization
Description: (§1) Table 2 below illustrates how a novel clone (11A6) derived by using the triple sequential immunization procedure described herein performs in an actual commercial MIRA (Roche Diagnostic Systems, Inc., Branchburg, N.J.) assay ABUSCREEN® 100 TEST ONLINE™ KIT (Roche Diagnostic Systems, Inc., Branchburg, N.J. immunoassay) for cannabinoids. Example 20 describes the reagents contained in Roche's commercial Abuscreen® 100 Test Online™ Kit, except that the antibody has been replaced by a novel antibody according to this invention. […] Both tables also report the corresponding results using the monoclonal antibody (11E.2) derived from immunization with a single immunogen (immunogen (VIII)).
(§2) In Table 2, MoAb 11E.2 is an IgA (dimeric) antibody, while MoAB 11A6 is an IgG (monomeric) antibody. In order to agglutinate the microparticles included in the current commercial MIRA assay when 11A6 is used, inclusion of an anti-IgG antibody (commercially available, e.g., from Biodesign Int., Kennebunk, Me. 04043, USA) was required.
(§3) This example describes the reagents contained in Roche's ABUSCREEN® 100 TEST ONLINE™ KIT (Roche Diagnostic Systems, Inc., Branchburg, N.J. immunoassay) for cannabinoids.
(§4) 1. Antibody Reagent: A cannabinoid monoclonal antibody (IgG) with a secondary antibody adjusted in concentration to give the best dynamic standard curve with desired performance characteristics around the assay cutoff. This antibody is diluted in an antibody diluent containing: 50 mM HEPES, 0.1% BSA, 0.5% sodium chloride, 0.09% sodium azide and adjusted to a pH of 6.5.
(§5) 2. Microparticle Reagent: Conjugated cannabinoids derivative microparticle in a buffer containing 10 mM kPi pH 7.5 and 0.09% sodium Azide (supplied in kit).
(§6) 3. Sample Diluent: Buffer containing 50 mM PIPES pH 7.0, 2.5% PVP, 2.0% Sodium Chloride and 0.09% sodium azide (supplied in kit).
(§7) An assay using the above reagents is performed pursuant to the directions stated in the package insert for the commercially available Roche Abuscreen® Online™ 100 test kit for cannabinoids.

MoAb 11E.2 = test: MIRA assay ABUSCREEN 100 TEST ONLINE KIT for cannabinoids, MoAb 11E.2; assay type: binding, Murine; settings: commercial MIRA assay; (II) = 100 by definition; IgA from immunization with (VIII) alone
Description: as §1, §2, §3, §4, §5, §6, §7

| Compound | CROSS REACTIVITY (%) MoAb 11A6 with anti-IgG (MoAb 11A6) | CROSS REACTIVITY (%) MoAb 11E.2 (MoAb 11E.2) |
| --- | --- | --- |
| CCCCCc1cc(O)c2c(c1)OC(C)(C)c1ccc(CO)cc1-2 [11-Hydroxycannabinol] | 35% | 16% |
| CCCCCc1cc(O)c2c(c1)OC(C)(C)[C@@H]1C[C@H](O)C(C)=C[C@@H]21 [(-)-8α-Hydroxy-Δ^9 -THC (VI), (-)-8α-Hydroxy-Δ^9 -THC] | 71% | 60% |
| CCCCCc1cc(O)c2c(c1)OC(C)(C)[C@@H]1C[C@@H](O)C(CO)=C[C@@H]21 [(-)-8β,11-Dihydroxy-Δ^9 -THC (VII), (-)-8β,11-Dihydroxy-Δ^9 -THC] | 36% | 14% |
| CCCCCc1cc(O)c2c(c1)OC(C)(C)[C@@H]1CCC(CO)=C[C@@H]21 [(-)-11-Hydroxy-Δ^9 -THC (V), (-)-11-Hydroxy-Δ^9 -THC] | 32% | 23% |
| CCCCCc1cc(O)c2c(c1)OC(C)(C)[C@@H]1CCC(C)=C[C@@H]21 [(-)-Δ^9 -THC, Δ^9 -tetrahydrocannabinol] | 7.3% | 7.6% |
| CCCCCc1cc(O)c2c(c1)OC(C)(C)[C@@H]1CCC(C(=O)O)=C[C@@H]21 [(-)-Δ^9-11-nor-9-COOH-THC (II), Δ^9-11-nor-9-carboxy-THC] | 100% | 100% |
| C=C(C)[C@@H]1CCC(C)=C[C@H]1c1c(O)cc(CCCCC)cc1O [Cannabidiol] | < 0.1% | < 0.1% |
| CCCCCc1cc(O)c2c(c1)OC(C)(C)c1ccc(C)cc1-2 [Cannabinol] | 1.6% | 0.6% |
